# Laboratory results from patent US20230416298A1, “PRODRUGS OF NEUROACTIVE STEROIDS” (Brii Biosciences, Inc., priority 2020, published 2023).
# Key:
# Liver S9 stability = format: in vitro ADME; conditions: human liver S9, 37° C.; for half-life at 1 μM: time points up to 60 min; for Stability in Human Liver S9 Formation of parent compound: Yes/No
# Procedure: Intermediate solution: Dilute 5 μL of compounds or controls (7-ethoxycoumarin) from stock solution (10 mM) with 495 μL MeOH (Conc.: 100 μM, 1% DMSO, 99% MeOH). Stop solution: Cold ACN (including 100 ng/mL Tolbutamide and Labetalol as internal standard). Add 2 μL test compound or control working solution/well to all plates (T0, T5, T10, T20, T30, T60, NCF60) except matrix blank. Add 600 μL/well stop solution (cold in 4° C., including 100 ng/mL Tolbutamide/100 ng/mL Labetalol) to terminate the TO plate, then put it on ice. Dispense 840 μL/well S9 solution to 96-well plate as reservoir according to plate map. Then add 100 μL/well to every plate by Apricot. Incubate S9 solution and compound at 37° C. for about 10 min except NCF60 and TO. After adding S9 solution and 98 μ LPB buffer to NCF60, incubate at 37° C. without pre-warming, start timer 1. After 60 min, add 600 μL/well stop solution to terminate the reaction. After pre-warming, dispense 760 μL/well cofactor solution to 96-well plate as reservoir according to plate map. Then add 98 μL/well to every plate by Apricot to start reaction. Incubate at 37° C., start timer 2, Add 600 μL/well stop solution (cold in 4° C., including 100 ng/mL Tolbutamide and Labetalol) to terminate the reaction. Samples are centrifuged at 4000 rpm for 20 min. While centrifuging, load 8×new 96-well plate with 300 μL HPLC water, then transfer 100 μL supernatant, mix with water for LC/MS/MS, transferred to Bioanalytical Services for LC-MS/MS analysis. Use equation of first order kinetics to calculate t1/2 and CL: Equation of first order kinetics: […]
# Plasma stability = format: in vitro ADME; conditions: 37° C.; for Stability in Human Plasma Formation of parent compound: 2 μM, Yes/No; for half-life at 2 μM: pooled plasma, pH 7.4, human plasma, time points 0, 10, 30, 60 and 120 min
# Procedure: The pooled frozen plasma was thawed in a water bath at 37° C. prior to experiment. Plasma was centrifuged at 4000 rpm for 5 min and the clots were removed if any. The pH will be adjusted to 7.4±0.1 if required.
# Preparation of test compounds and positive control (propantheline bromide): 1 mM intermediate solution was prepared by diluting 10 μL of the stock solution with 90 μL MeOH; 1 mM intermediate of positive control Propantheline was prepared by diluting 10 μL of the stock solution with 90 μL ultrapure water. 100 μM dosing solution was prepared by diluting 20 μL of the intermediate solution (1 mM) with 180 μL MeOH. 98 μL of blank plasma was spiked with 2 μL of dosing solution (100 μM) to achieve 2 μM of the final concentration in duplicate and samples were incubated at 37° C. in a water bath. At each time point (0,10, 30, 60 and 120 min), 400 μL of stop solution (0.1% FA in MeOH containing 200 ng/mL tolbutamide and 200 ng/mL Labetalol) was added to precipitate protein and mixed thoroughly. Centrifuged sample plates at 4,000 rpm for 10 min. An aliquot of supernatant (100 μL) was transferred from each well to another plates.
# Data analysis: The % remaining of test compound after incubation in plasma was calculated using following equation:
# % Remaining=[…]×(PAR at appointed incubation time/PAR at T0 time)
# where PAR is the peak area ratio of analyte versus internal standard (IS) (LC/MS/MS mobile phase condition: 0.1% Formic Acid in Water/0.1% Formic Acid in Acetonitrile. The appointed incubation time points are TO (0 min), Tn (n=0, 10, 30, 60, 120 min).
SMILES,half-life at 1 μM (Liver S9 stability) [h],Stability in Human Liver S9 Formation of parent compound (Liver S9 stability),Stability in Human Plasma Formation of parent compound (Plasma stability),half-life at 2 μM (Plasma stability) [h]
"CC(=O)[C@H]1CC[C@H]2[C@@H]3CC[C@H]4C[C@H](OC(=O)OCCN(C)C(=O)C(C)C)CC[C@]4(C)[C@H]3CC[C@]12C [Example 25, (3R,5S,8R,9S,10S,13S,14S,17S)-17-acetyl-10,13-dimethylhexadecahydro-1H-cycl penta[a]phenanthren-3-yl(2-(N-methylisobutyramido)ethyl) carbonate]",< 0.833,No,No,> 3.33
"COC(=O)N(C)CCOC(=O)O[C@@H]1CC[C@@]2(C)[C@@H](CC[C@@H]3[C@@H]2CC[C@]2(C)[C@@H](C(C)=O)CC[C@@H]32)C1 [Example 27, [(3R,5S,8R,9S,10S,13S,14S,17S)-17-acetyl-10,13-dimethyl-2,3,4,5,6,7,8,9,11,12,14,15,16,17-tetradecahydro-1H-cyclopenta[a]phenanthren-3-yl]2-(methoxycarbonyl-N-methylamino)ethyl carbonate]",< 0.833,Yes,No,> 3.33
